We go through 21 molecules from patent USRE47689E1, “Compounds for treating spinal muscular atrophy” (PTC Therapeutics, Inc., priority 2011, dated 2019).

Data set [1] relates to SMN2 minigene (full length SMN2 minigene mRNA containing SMN2 exon 7). The data set can be described thus: SMN2 minigene mRNA splicing RT-qPCR assay in cultured cells. Type of data set: cell-based, human. Conditions: Homo sapiens, HEK293-H; HEK293H cells stably transfected with SMN2-A minigene; 24 hours; 7-point concentration curve; 1.5-fold relative to vehicle-treated cells; read-out: EC1.5x for production of full length SMN2 mRNA. An outline of the steps:
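Full-length SMN2 minigene mRNA (exon 7 included), minigene-specific and not endogenous SMN, quantified by RT-qPCR multiplexed with GAPDH in stably transfected HEK293H cells after 24 h compound exposure at 37° C. Abundance from efficiency-corrected Ct, normalized to GAPDH and vehicle; EC1.5x reported as star bins.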
(Real-time PCR tracks product formation cycle by cycle.)

The next data set relates to Smn protein. Description: Smn protein assay in cultured cells (SMN HTRF). The format is cell-based, human. Conditions: 48 hours; for EC1.5x (concentration giving 1.5-fold Smn protein increase): SMA Type 1 patient fibroblast cells (GM03813), 7-point concentration curve, SMN HTRF, concentration producing 1.5 times Smn protein vs DMSO vehicle control, read-out: EC1.5x for Smn protein expression; for maximum fold (Fold) increase of Smn protein: SMA patient fibroblast cells, 7-point concentration data, fold increase relative to vehicle control (SMN HTRF). In outline:
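Smn in SMA fibroblast lysates, measured by anti-SMN HTRF after 48 h compound exposure; EC1.5x from fold change over vehicle.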
A general note: TR-FRET usually uses a lanthanide donor and a delayed reading to cut background.

As for `CN(CCO)Cc1ccc2cc(-c3cn4ccsc4n3)c(=O)oc2c1` [Compound 345, 7-{[(2-hydroxyethyl)(methyl)amino]methyl}-3-(imidazo[2,1-b][1,3]thiazol-6-yl)-2H-chromen-2-one], the melting point (as a rule, the temperature of the solid-liquid transition) was in the range of 145 to 148 °C. Further, the EC (1.5-fold) in data set [1] is 1 to 3 µM. For the same molecule, in the data set with Smn protein, the EC1.5x (concentration giving 1.5-fold Smn protein increase) was 3000 to 10000 nM; the “maximum fold (Fold) increase of Smn protein” value (“maximum fold (Fold) increase” for short) is “*** (fold increase between >1.35 and ≤1.5)”.

In the case of `C[C@@H]1CN(c2ccc3cc(-c4nc(C(F)(F)F)cs4)c(=O)oc3c2)CCN1` [Compound 240, 7-[(3R)-3-methylpiperazin-1-yl]-3-[4-(trifluoromethyl)-1,3-thiazol-2-yl]-2H-chromen-2-one], the melting point is 234 to 238 °C. Moreover, the EC (1.5-fold) in data set [1] fell in the range of 1 to 3 µM. Besides, the “maximum fold (Fold) increase” value with Smn protein was “* (maximum fold increase of ≤1.2)”.

In the case of `O=c1oc2cc(N3CCNCC3)ccc2cc1-c1cn2cccnc2n1` [Cpd 89, 3-(imidazo[1,2-a]pyrimidin-2-yl)-7-(piperazin-1-yl)-2H-chromen-2-one], the melting point is 286 °C (dec.). Also, the EC (1.5-fold) in data set [1] is 0.1 to 0.3 µM. In addition, in the data set on Smn protein, the EC1.5x (concentration giving 1.5-fold Smn protein increase) lay in the range of 300 to 1000 nM; the “maximum fold (Fold) increase” value is “**** (fold increase between >1.5 and ≤1.65)”.

Regarding `O=c1oc2cc(N3CCNCC3)ccc2cc1-c1cc2ncccn2c1` [Cpd 579, 7-(piperazin-1-yl)-3-(pyrrolo[1,2-a]pyrimidin-7-yl)-2H-chromen-2-one], the melting point lay in the range of 235 to 238 °C. Also, the EC (1.5-fold) in data set [1] lay in the range of 0.3 to 1 µM. The “maximum fold (Fold) increase” value in the data set on Smn protein was “* (maximum fold increase of ≤1.2)”.

`COc1ccc(-c2cc3c(F)cc(N4CCCN(C)CC4)cc3oc2=O)cc1OC` [Compound 406, 3-(3,4-dimethoxyphenyl)-5-fluoro-7-(4-methyl-1,4-diazepan-1-yl)-2H-chromen-2-one] registered a melting point of 134 to 140 °C. Further, in data set [1], the EC (1.5-fold) was in the range of 3 to 30 µM. In addition, the “maximum fold (Fold) increase” value with Smn protein was “* (maximum fold increase of ≤1.2)”.

In the case of `Cc1cn2cc(-c3cc4ccc(N5C[C@H](O)[C@@H](N(C)C)C5)cc4oc3=O)nc2c(C)n1` [Compound 738, 7-[(3S,4S)-3-(dimethylamino)-4-hydroxypyrrolidin-1-yl]-3-(6,8-dimethylimidazo[1,2-a]pyrazin-2-yl)-2H-chromen-2-one], the melting point lay within 270 to 272 °C. Further, the EC (1.5-fold) in data set [1] was less than 0.1 µM. In the data set on Smn protein, the EC1.5x (concentration giving 1.5-fold Smn protein increase) is less than 300 nM and the “maximum fold (Fold) increase” value is “***** (fold increase >1.65)”.

The molecule `Cc1nc(Cl)cn2cc(-c3cc4ccc(N5CCN[C@@H](C)C5)cc4oc3=O)nc12` [Compound 713, 3-(6-chloro-8-methylimidazo[1,2-a]pyrazin-2-yl)-7-[(3S)-3-methylpiperazin-1-yl]-2H-chromen-2-one] came in with a melting point of 235 to 238 °C. In addition, the EC (1.5-fold) in data set [1] is less than 0.1 µM. Moreover, in the data set on Smn protein, the EC1.5x (concentration giving 1.5-fold Smn protein increase) was less than 300 nM; the “maximum fold (Fold) increase” value is “*** (fold increase between >1.35 and ≤1.5)”.

For `C[C@H]1CN(c2ccc3cc(-c4cn5cc(F)cnc5n4)c(=O)oc3c2)CCN1` [Compound 492, 3-(6-fluoroimidazo[1,2-a]pyrimidin-2-yl)-7-[(3S)-3-methylpiperazin-1-yl]-2H-chromen-2-one], the melting point lay within 230 to 236 °C. Besides, the EC (1.5-fold) in data set [1] was in the range of 1 to 3 µM. In addition, the “maximum fold (Fold) increase” value with Smn protein is reported as “* (maximum fold increase of ≤1.2)”.

Consider `Cc1cn2cc(-c3cc4ccc(N5CCC(CN)CC5)cc4oc3=O)cc2c(C)n1` [Compound 784, 7-[4-(aminomethyl)piperidin-1-yl]-3-(1,3-dimethylpyrrolo[1,2-a]pyrazin-7-yl)-2H-chromen-2-one], for which the melting point lay within 256 to 259 °C. Further, in data set [1], the EC (1.5-fold) lay in the range of 1 to 3 µM. Also, the “maximum fold (Fold) increase” value in the data set with Smn protein is “** (fold increase between >1.2 and ≤1.35)”.

`Cc1cnc2nc(-c3cc4ccc(N5CCCNCC5)cc4oc3=O)cn2c1` [Compound 378, 7-(1,4-diazepan-1-yl)-3-(6-methylimidazo[1,2-a]pyrimidin-2-yl)-2H-chromen-2-one] registered a melting point of 275 to 278 °C. Moreover, in data set [1], the EC (1.5-fold) was in the range of 0.1 to 0.3 µM. Besides, the “maximum fold (Fold) increase” value in the data set with Smn protein was “** (fold increase between >1.2 and ≤1.35)”.

Regarding `Cc1cn2cc(-c3cc4ccc(N5CCN6CCC[C@H]6C5)cc4oc3=O)cnc2n1` [Compound 649, 7-[(8aS)-hexahydropyrrolo[1,2-a]pyrazin-2(1H)-yl]-3-(2-methylimidazo[1,2-a]pyrimidin-6-yl)-2H-chromen-2-one], the melting point lay within 295 to 297 °C. For the same molecule, in data set [1], the EC (1.5-fold) was in the range of 0.1 to 0.3 µM. For the same molecule, in the data set with Smn protein, the EC1.5x (concentration giving 1.5-fold Smn protein increase) is 300 to 1000 nM and the “maximum fold (Fold) increase” value is “***** (fold increase >1.65)”.

As for `Cc1nn2cc(-c3cc4ccc(N5CCCN(C)CC5)cc4oc3=O)nc2s1` [Compound 451, 7-(4-methyl-1,4-diazepan-1-yl)-3-(2-methylimidazo[2,1-b][1,3,4]thiadiazol-6-yl)-2H-chromen-2-one], the melting point lay in the range of 191 to 195 °C. Also, the EC (1.5-fold) in data set [1] lay in the range of 1 to 3 µM. For the same molecule, in the data set on Smn protein, the “maximum fold (Fold) increase” value was “*** (fold increase between >1.35 and ≤1.5)”.

Consider `CCN(C)CCOc1ccc2cc(-c3cn4cc(C)nc(C)c4n3)c(=O)oc2c1` [Compound 937, 3-(6,8-dimethylimidazo[1,2-a]pyrazin-2-yl)-7-{2-[ethyl(methyl)amino]ethoxy}-2H-chromen-2-one], for which the melting point lay in the range of 190 to 196 °C. For the same molecule, the EC (1.5-fold) in data set [1] was less than 0.1 µM. Also, in the data set on Smn protein, the EC1.5x (concentration giving 1.5-fold Smn protein increase) is less than 300 nM and the “maximum fold (Fold) increase” value is on record as “***** (fold increase >1.65)”.

`Cc1cc2cc(-c3cc4ccc(N5CCN6CCC[C@H]6C5)cc4oc3=O)oc2c(C)n1` [Compound 745, 3-(5,7-dimethylfuro[2,3-c]pyridin-2-yl)-7-[(8aS)-hexahydropyrrolo[1,2-a]pyrazin-2(1H)-yl]-2H-chromen-2-one] yielded a melting point of 203 to 205 °C. For the same molecule, in data set [1], the EC (1.5-fold) is less than 0.1 µM. Besides, in the data set on Smn protein, the EC1.5x (concentration giving 1.5-fold Smn protein increase) was less than 300 nM and the “maximum fold (Fold) increase” value is on record as “***** (fold increase >1.65)”.

The molecule `COc1ccn2cc(-c3cc4ccc(N5C[C@@H](C)N[C@@H](C)C5)cc4oc3=O)nc2c1` [Compound 432, 7-[(3R,5S)-3,5-dimethylpiperazin-1-yl]-3-(7-methoxyimidazo[1,2-a]pyridin-2-yl)-2H-chromen-2-one] came in with a melting point of 225 to 230 °C. Further, in data set [1], the EC (1.5-fold) was in the range of 1 to 3 µM. For the same molecule, in the data set on Smn protein, the “maximum fold (Fold) increase” value was “** (fold increase between >1.2 and ≤1.35)”.

Regarding `Cc1cn2cc(-c3cc4ccc(OCCNCC(C)O)cc4oc3=O)nc2c(C)n1` (stereo not shown) [Compound 961, 3-(6,8-dimethylimidazo[1,2-a]pyrazin-2-yl)-7-{2-[(2-hydroxypropyl)amino]ethoxy}-2H-chromen-2-one], the melting point was 185 to 188 °C. Further, the EC (1.5-fold) in data set [1] is less than 0.1 µM. Moreover, in the data set on Smn protein, the EC1.5x (concentration giving 1.5-fold Smn protein increase) is less than 300 nM; the “maximum fold (Fold) increase” value was “*** (fold increase between >1.35 and ≤1.5)”.

On to `Cc1cn2cc(-c3cc4ccc(N(C)[C@H]5CCNC5)cc4oc3=O)nc2c(C)n1` [Cpd 620, 3-(6,8-dimethylimidazo[1,2-a]pyrazin-2-yl)-7-{methyl[(3S)-pyrrolidin-3-yl]amino}-2H-chromen-2-one], for which the melting point lay in the range of 192 to 202 °C. Besides, the EC (1.5-fold) in data set [1] was less than 0.1 µM. Moreover, in the data set with Smn protein, the EC1.5x (concentration giving 1.5-fold Smn protein increase) is less than 300 nM; the “maximum fold (Fold) increase” value was “**** (fold increase between >1.5 and ≤1.65)”.

Turning to `O=c1oc2cc(O[C@H]3CCNC3)ccc2cc1-c1nc2ccccc2s1` [Compound 54, 3-(1,3-benzothiazol-2-yl)-7-[(3S)-pyrrolidin-3-yloxy]-2H-chromen-2-one], the melting point is 205 to 211 °C. Also, the EC (1.5-fold) in data set [1] lay in the range of 1 to 3 µM. For the same molecule, the “maximum fold (Fold) increase” value in the data set with Smn protein was “* (maximum fold increase of ≤1.2)”.

`Cc1ccn2cc(-c3cc4ccc(N5CCNC6(CCCC6)C5)cc4oc3=O)nc2c1` [Compound 596, 7-(6,9-diazaspiro[4.5]dec-9-yl)-3-(7-methylimidazo[1,2-a]pyridin-2-yl)-2H-chromen-2-one]: the melting point worked out at 180 °C. The EC (1.5-fold) in data set [1] fell in the range of 0.3 to 1 µM. Moreover, the “maximum fold (Fold) increase” value in the data set on Smn protein was “** (fold increase between >1.2 and ≤1.35)”.

`Cc1cn2cc(-c3cc4ccc(C5CCN(CCO)CC5)cc4oc3=O)ccc2n1` [Compound 829, 7-[1-(2-hydroxyethyl)piperidin-4-yl]-3-(2-methylimidazo[1,2-a]pyridin-6-yl)-2H-chromen-2-one]: the melting point was 222 to 226 °C. Further, the EC (1.5-fold) in data set [1] is less than 0.1 µM. In the data set with Smn protein, the EC1.5x (concentration giving 1.5-fold Smn protein increase) is less than 300 nM and the “maximum fold (Fold) increase” value is on record as “***** (fold increase >1.65)”.

Molecule `Cc1cn2cc(-c3cc4ccc(N5CCCNCC5)cc4oc3=O)ccc2n1` [Compound 663, 7-(1,4-diazepan-1-yl)-3-(2-methylimidazo[1,2-a]pyridin-6-yl)-2H-chromen-2-one] showed a melting point of 222 to 225 °C. In addition, in data set [1], the EC (1.5-fold) was less than 0.1 µM. In the data set with Smn protein, the “maximum fold (Fold) increase” value was “*** (fold increase between >1.35 and ≤1.5)”.
